According to patent US9840470B2, “Targeting GLI proteins in human cancer by small molecules” (The Regents of the University of California, priority 2013, dated 2017):

Legend:
Wnt signaling pathway = assay: Quantitative RT-PCR of canonical Wnt pathway genes in xenograft tumors; format: in vivo, mouse; details: Melanoma tumor, pooled tumor from two mice, compared to controls
Procedure: (§1) Total RNA was isolated using Qiagen RNeasy Mini Kit (Valencia, Calif.). Hybridization probes and primers (Table 1) were purchased from Applied Biosystems (ABI, Foster City, Calif.). cDNA synthesis and Taqman® PCR were performed according to the manufactures' protocols. The gene expression was assayed in triplicate in ABI 7300 Real-time PCR System. Samples were normalized to their housekeeping gene GAPDH and then calculated by using 2^−dct method.
To examine whether Compounds 1, 2, 4, and 6 suppressed tumor growth through inhibition of the Wnt signaling pathway in vivo, expression of the key components and direct target genes of the Wnt pathway (e.g. Wnt2, Axin2, EGFR, and Cyclin D1) were analyzed by quantitative real-time RT-PCR using total RNA isolated from the xenograft tumors. GAPDH served as a control. This RT-PCR analysis was performed using a “pooled” tumor from two randomly selected mice of each group with reasonable size tumors. […] The results are shown in FIG. 4, where C is control and V is vehicle.

[1] = Histological (H&E) examination of mouse organs for toxicity; format: in vivo; details: i.p. two doses daily for 6 days; liver, spleen, kidney, heart
From the text: (§2) After the in vivo studies were completed, different organs were resected from mice. These organs included liver, lung, heart, kidney, intestines, ovary, brain, spleen, skin, and muscle. The specimens were fixed in 4% buffered formaldehyde, embedded in paraffin, sectioned, and histologically analyzed by hematoxylin and eosin (HE) staining. The HE stained slides were examined by a mouse pathologist for toxicity evidence from all the organs as compared with vehicle controls. In addition, leukocytes (WBC: white blood cell, NE: neutrophil, LY: lymphocyte, MO: monocyte, EO: eosinophil, BA: basophil) from each animal from all treatment groups were collected and leukocyte population was counted through a blood cell counter.
To analyze toxicity of the Compounds 1, 2, 4, and 6 in vivo, each group (three mice) was i.p. injected with two doses of each Compound daily for 6 days, and then major mouse organs, such as liver, spleen, kidney, and heart were resected from the mice.

mesothelioma MS-1 = assay: In vivo efficacy, mouse xenograft model (mesothelioma MS-1); details: 50 mg/kg body weight i.p. daily for 14 days, from ten days after inoculation
Procedure: (§3) The administered compounds were tested in vivo in the mouse xenograft model bearing human cancer cells. Briefly, female athymic nude mice strain NCRNU-M (5-10 weeks old, 20-25 grams in weight; Taconic, Germantown, N.Y.) was maintained in pathogen-free conditions. Three human cancer cell lines: NSCLC A549, melanoma MelJuso, and mesothelioma MS-1 were used. Five or ten mice were used in each group and injected s.c. with 3×10^6 cancer cells in the dorsal area in a volume of 100 μl. After inoculation, human cancer cells were allowed to grow in mice for 10-13 days to become visible tumor nodules. Animals were then injected with a compound of the embodiments at a dose of 50 mg/kg body weight (1 mg/mouse per day). Vehicle alone was used as control. The compounds and controls were adjusted in 40 ul volume for i.p. injection in the abdomens of the mice. Injections were performed daily around the same time for 14 days. […] Tumor size was measured every three to four days, and tumor volumes were calculated using width (x) and length (y) (x^2y/2, where x<y). Throughout this period, general toxicity of the treatments was also monitored by measuring body weight of the mice. […]
In vivo efficacy study of Compounds 1 and 4 were performed using a Mouse Xenograft Model (Mesothelioma MS-1). […] Tumor sizes was measured twice weekly until the completion of the experiments. […]

[2] = Preliminary in vivo toxicity: leukocyte population and body weight after treatment; parameters: species or system mouse; details: for changes of leukocyte population: at completion of the in vivo studies; for loss of body weight: during the course of drug administration
Procedure: (§4) The administered compounds were tested in vivo in the mouse xenograft model bearing human cancer cells. Briefly, female athymic nude mice strain NCRNU-M (5-10 weeks old, 20-25 grams in weight; Taconic, Germantown, N.Y.) was maintained in pathogen-free conditions. Three human cancer cell lines: NSCLC A549, melanoma MelJuso, and mesothelioma MS-1 were used. Five or ten mice were used in each group and injected s.c. with 3×10^6 cancer cells in the dorsal area in a volume of 100 μl. After inoculation, human cancer cells were allowed to grow in mice for 10-13 days to become visible tumor nodules. Animals were then injected with a compound of the embodiments at a dose of 50 mg/kg body weight (1 mg/mouse per day). Vehicle alone was used as control. The compounds and controls were adjusted in 40 ul volume for i.p. injection in the abdomens of the mice. Injections were performed daily around the same time for 14 days. Tumors were allowed to grow for 1-2 additional weeks after completion of the compound treatments. Tumor size was measured every three to four days, and tumor volumes were calculated using width (x) and length (y) (x^2y/2, where x<y). Throughout this period, general toxicity of the treatments was also monitored by measuring body weight of the mice. Data was presented as mean values (±S.D.).
as §2
(§5) As preliminary in vivo toxicity study of Compounds 1, 2, 4, and 6, it was examined if there were changes of leukocyte population and loss of body weight in the mice after the treatment. At the completion of the in vivo studies as described herein, leukocytes (WBC: white blood cell, NE: neutrophil, LY: lymphocyte, MO: monocyte, EO: eosinophil, BA: basophil) from each animal from all treatment groups were collected and leukocyte population was counted through a blood cell counter. Body weights of control groups (n=10) and the treated group (n=10) were measured using a scale during the course of drug administration. […] In an additional toxicity study, effect of different doses of compounds 4 and 6 on the body weight of mice was examined. The compounds were i.p. injected in the abdomens at 3 different doses: 25, 50, and 100 mg/kg body weight to mice (3 mice per dosing group) for 6 consecutive days.

[3] = tested on: Hedgehog signaling pathway; assay: Quantitative RT-PCR of Hh pathway genes in xenograft tumors; format: in vivo, mouse; details: Melanoma tumor (MelJuso), pooled tumor from two mice
Procedure: as §1
To examine whether Compounds 1, 2, 4, and 6 suppressed tumor growth through inhibition of the Hedgehog signaling pathway in vivo, expression of the key components and direct target genes of the Hh pathway (e.g. Gli1, Gli2, Gli3, HHIP and Cyclin D1) were analyzed by quantitative real-time RT-PCR using total RNA isolated from the xenograft tumors. GAPDH served as a control. This RT-PCR analysis was performed using a “pooled” tumor from two randomly selected mice of each group with reasonable size tumors. […] The results are shown in FIG. 4, where C is control and V is vehicle.

melanoma MelJuso = assay: In vivo efficacy, mouse xenograft model (melanoma MelJuso); details: for tumor growth: 50 mg/kg body weight i.p. daily for 14 days, from 13 days after inoculation; for tumor weight (FIG. 1): melanoma MelJuso xenograft, after treatment
Procedure: as §4
In vivo efficacy study of Compounds 1, 2, 4, and 6 were performed using a Mouse Xenograft Model (Melanoma MelJuso). Mice were injected s.c. with 3×10^6 cells in the dorsal area in a volume of 100 μl. 13 days after inoculation, the mice started receiving treatments with the administered compound at a dose of 50 mg/kg body weight daily for 14 days (n=10). Vehicle alone was used as control (n=10). The administered compounds and vehicle were adjusted in a volume of 40 μl for i.p. injection in the abdomens of the mice. Tumor size and tumor volumes were calculated as described above.

NSCLC A549 = assay: In vivo efficacy, mouse xenograft model (lung cancer A549); details: 50 mg/kg i.p. daily for 14 days, then 50 mg/kg daily for 1x7 days; tumors weighed 43 days after inoculation
Procedure: as §3
In vivo efficacy study of Compounds 1 and 4 in Mouse Xenograft Model (NSCLC A549) was examined. […] 43 days after the initial tumor inoculation, tumors were dissected from the mice of each group and their weights were measured using a scale. […]

human NSCLC cell lines = assay: Combination treatment with chemotherapies, MTS proliferation assay, lung cancer cells; format: cell-based; details: 72 hours, Combination Index
From the text: (§6) Another assay for determining the number of viable cells in proliferation or cytotoxicity assays is the MTS assay, a colorimetric method. MTS assay reagents are commercially available (Promega Corp., Madison, Wis.). The reagent contains a tetrazolium compound [3-(4,5-dimethylthiazol-2-yl)-5-(3-carboxymethoxyphenyl)-2-(4-sulfophenyl)-2H-tetrazolium, inner salt; MTS] and an electron coupling reagent (phenazine ethosulfate; PES). PES has enhanced chemical stability, which allows it to be combined with MTS to form a stable solution. The MTS tetrazolium compound (Owen's reagent) is bioreduced by cells into a colored formazan product that is soluble in tissue culture medium. This conversion may be accomplished by NADPH or NADH produced by dehydrogenase enzymes in metabolically active cells. The quantity of formazan product as measured by the absorbance at 490 nm is directly proportional to the number of living cells in culture. Because the MTS formazan product is soluble in tissue culture medium, this assay requires fewer steps than procedures that use tetrazolium compounds such as MTT. The formazan product of MTT reduction is a crystalline precipitate that requires an additional step in the procedure to dissolve the crystals before recording absorbance readings at 570 nm.
(§7) Combination treatments of the Compounds with several chemotherapies: erlotinib (Tarceva®), PI3K inhibitor LY294002, TGFβ inhibitor SB431542, and pemetrexed (Alimta®) were performed in human NSCLC and MM cell lines (FIGS. 12-17). In all experiments, NSCLC and MM cell lines were treated with different doses of each compound or combination for 72 hours, and MTS assays were performed to determine the cell proliferations. Combination Index (CI), calculated by CalcuSyn software (Biosoft, Cambridge, UK), was applied to describe the effect of the combination effects of two compounds, where CI<1 indicates Synergism, CI=1 indicates Additive effects, and CI>1 indicates Antagonism. Student's t-tests were applied for statistical analysis.

[4] = tested on: human MM cell lines (mesothelioma cells); assay: Combination treatment with chemotherapies, MTS proliferation assay, mesothelioma cells; format: cell-based; details: 72 hours, Combination Index
From the text: as §6, §7

[5] = Additional toxicity study: body weight at different doses; format: in vivo, mouse; details: i.p. 25, 50, and 100 mg/kg body weight for 6 consecutive days
Procedure: Each dosing group contained 3 mice. The body weight of mice was measured using a scale. Results are the means±SD (error bars).
as §5

CC(C)(CO)CCCNC(=O)C1C(c2ccccc2)=NN(c2ccccc2)C1c1ccsc1 (stereo not drawn) [Compound 1, 1,3-diphenyl-5-thiophen-3-yl-4,5-dihydro-1H-pyrazole-4-carboxylic acid (5-hydroxy-4,4-dimethyl-pentyl)-amide]
expression of the key indicator of the canonical Wnt activation (Wnt signaling pathway): significantly down-regulated | toxicity in organs (H&E histology) [1]: No noticeable toxicity | tumor weight compared to the control group (mesothelioma MS-1): decreased | changes of leukocyte population [2]: No noticeable changes of leukocyte population | loss of body weight [2]: No noticeable changes of leukocyte population or loss of the body weight | Hh signaling (expression of Gli1, Gli2, Gli3, HHIP, Cyclin D1) [3]: inhibited | tumor growth (melanoma MelJuso): dramatically suppressed | tumor weight (FIG. 1) (melanoma MelJuso): significantly decreased | tumor weight compared to the control group (NSCLC A549): decreased

O=C(NCc1ccc(O)cc1)C1C(c2ccccc2)=NN(c2ccccc2)C1c1ccccc1 (stereo not drawn) [Compound 2, 1,3,5-triphenyl-4,5-dihydro-1H-pyrazole-4-carboxylic acid 4-hydroxy-benzylamide]
expression of the key indicator of the canonical Wnt activation (Wnt signaling pathway): significantly down-regulated | toxicity in organs (H&E histology) [1]: No noticeable toxicity | changes of leukocyte population [2]: No noticeable changes of leukocyte population | loss of body weight [2]: No noticeable changes of leukocyte population or loss of the body weight | Hh signaling (expression of Gli1, Gli2, Gli3, HHIP, Cyclin D1) [3]: inhibited | tumor growth (melanoma MelJuso): dramatically suppressed | tumor weight (FIG. 1) (melanoma MelJuso): significantly decreased

CCCC1C(C(=O)NCCCC(C)(C)CO)C(c2ccc(F)cc2)=NN1c1ccccc1 (stereo not drawn) [Compound 4, 3-(4-fluoro-phenyl)-1-phenyl-5-propyl-4,5-dihydro-1H-pyrazole-4-carboxylic acid (5-hydroxy-4,4-dimethyl-pentyl)-amide]
combination effect with erlotinib (Tarceva) (human NSCLC cell lines): synergy | combination effect with erlotinib (Tarceva) [4]: synergy | expression of the key indicator of the canonical Wnt activation (Wnt signaling pathway): significantly down-regulated | toxicity in organs (H&E histology) [1]: No noticeable toxicity | loss of body weight [5]: no noticeable loss of the body weight | tumor weight compared to the control group (mesothelioma MS-1): decreased | changes of leukocyte population [2]: No noticeable changes of leukocyte population | loss of body weight [2]: No noticeable changes of leukocyte population or loss of the body weight | Hh signaling (expression of Gli1, Gli2, Gli3, HHIP, Cyclin D1) [3]: inhibited | tumor growth (melanoma MelJuso): dramatically suppressed | tumor weight (FIG. 1) (melanoma MelJuso): significantly decreased | tumor weight compared to the control group (NSCLC A549): decreased

CC(C)(CO)CCCNC(=O)C1C(c2ccc(F)cc2)=NN(c2ccccc2)C1c1cccc(F)c1 (stereo not drawn) [Compound 6, 3-(4-fluoro-phenyl)-5-(3-fluoro-phenyl)-1-phenyl-4,5-dihydro-1H-pyrazole-4-carboxylic acid (5-hydroxy-4,4-dimethyl-pentyl)-amide]
combination effect with PI3K inhibitor LY294002 (human NSCLC cell lines): synergy | combination effect with TGFβ inhibitor SB431542 (human NSCLC cell lines): synergy | combination effect with PI3K inhibitor LY294002 [4]: synergy | combination effect with pemetrexed (Alimta) [4]: synergy | toxicity in organs (H&E histology) [1]: No noticeable toxicity | loss of body weight [5]: no noticeable loss of the body weight | changes of leukocyte population [2]: No noticeable changes of leukocyte population | loss of body weight [2]: No noticeable changes of leukocyte population or loss of the body weight | Hh signaling (expression of Gli1, Gli2, Gli3, HHIP, Cyclin D1) [3]: inhibited | tumor growth (melanoma MelJuso): dramatically suppressed | tumor weight (FIG. 1) (melanoma MelJuso): significantly decreased
